Measurements as given in ChEMBL document CHEMBL5537169, “Structure-Activity Relationships and Discovery of (S)-6-Isopropyl-2-methoxy-3-(3-methoxypropoxy)-10-oxo-5,10-dihydro-6H-pyrido[1,2-h][1,7]naphthyridine-9-carboxylic Acid (AB-452), a Novel Orally Available HBV RNA Destabilizer” (J Med Chem, 2024).

Legend:
Hepatitis B virus = assay: Antiviral activity against HBV infected in human HepG2.2.15 cells assessed as inhibition of HBsAg level incubated for 6 days by microplate-based chemiluminescence immunoassay; type: functional, organism-based; conditions: HepG2 2.2.15, 144 h
HepG2 2.2.15 = assay: Cytotoxicity against human HepG2.2.15 cells by Cell-titer Glo luminescent assay; type: functional
[1] = Clearance in CD-1 mouse at 2 mg/kg,iv measured at 0.083 to 24 hrs post administration by LC-MS/MS analysis; type: ADME, organism-based; conditions: in vivo, time 0.083-24 hrs
[2] = Half life in CD-1 mouse at 10 mg/kg,po measured at 0.083 to 24 hrs post administration by LC-MS/MS analysis; type: ADME, organism-based; conditions: in vivo, time 0.083-24 hrs
[3] = Cmax in CD-1 mouse at 10 mg/kg,po measured at 0.083 to 24 hrs post administration by LC-MS/MS analysis; type: ADME, organism-based; conditions: in vivo, time 0.083-24 hrs
[4] = AUCinfinity in CD-1 mouse at 10 mg/kg,po measured at 0.083 to 24 hrs post administration by LC-MS/MS analysis; type: ADME, organism-based; conditions: in vivo, time 0.083-24 hrs
[5] = Oral bioavailability in CD-1 mouse at 10 mg/kg measured at 0.083 to 24 hrs by LC-MS/MS analysis; type: ADME, organism-based; conditions: in vivo, time 0.083-24 hrs
[6] = Clearance in Sprague-Dawley rat at 2 mg/kg,iv measured at 0.083 to 24 hrs post administration by LC-MS/MS analysis; type: ADME, organism-based; conditions: in vivo, time 0.083-24 hrs
[7] = Half life in Sprague-Dawley rat at 10 mg/kg,po measured at 0.083 to 24 hrs post administration by LC-MS/MS analysis; type: ADME, organism-based; conditions: in vivo, time 0.083-24 hrs; for half-life: Sprague-Dawley; for t1/2: po, 10 mg/kg
[8] = Cmax in Sprague-Dawley rat at 10 mg/kg,po measured at 0.083 to 24 hrs post administration by LC-MS/MS analysis; type: ADME, organism-based; conditions: in vivo, time 0.083-24 hrs
[9] = AUCinfinity in Sprague-Dawley rat at 10 mg/kg,po measured at 0.083 to 24 hrs post administration by LC-MS/MS analysis; type: ADME, organism-based; conditions: in vivo, time 0.083-24 hrs; for AUC: po, 10 mg/kg
[10] = Oral bioavailability in Sprague-Dawley rat at 10 mg/kg measured at 0.083 to 24 hrs by LC-MS/MS analysis; type: ADME, organism-based; conditions: in vivo, time 0.083-24 hrs; for F: po, 10 mg/kg
[11] = Apparent volume of distribution at steady state in CD-1 mouse at 2 mg/kg,iv measured at 0.083 to 24 hrs post administration by LC-MS/MS analysis; type: ADME, organism-based; conditions: in vivo, time 0.083-24 hrs, read-out: Vdss(app)
[12] = Half life in CD-1 mouse at 2 mg/kg,iv measured at 0.083 to 24 hrs post administration by LC-MS/MS analysis; type: ADME, organism-based; conditions: in vivo, time 0.083-24 hrs
[13] = Cmax in CD-1 mouse at 2 mg/kg,iv measured at 0.083 to 24 hrs post administration by LC-MS/MS analysis; type: ADME, organism-based; conditions: in vivo, time 0.083-24 hrs
[14] = AUCinfinity in CD-1 mouse at 2 mg/kg,iv measured at 0.083 to 24 hrs post administration by LC-MS/MS analysis; type: ADME, organism-based; conditions: in vivo, time 0.083-24 hrs
[15] = Drug accumulation in CD-1 mouse plasma assessed as fold change in drug uptake at 10 mg/kg,po measured at 0.083 to 24 hrs post administration by LC-MS/MS analysis; type: ADME, organism-based; conditions: in vivo, time 0.083-24 hrs
[16] = Drug accumulation in CD-1 mouse liver assessed as fold change in drug uptake at 10 mg/kg,po measured at 0.083 to 24 hrs post administration by LC-MS/MS analysis; type: ADME, organism-based; conditions: in vivo, time 0.083-24 hrs
[17] = Apparent volume of distribution at steady state in Sprague-Dawley rat at 2 mg/kg,iv measured at 0.083 to 24 hrs post administration by LC-MS/MS analysis; type: ADME, organism-based; conditions: in vivo, time 0.083-24 hrs, read-out: Vdss(app)
[18] = Half life in Sprague-Dawley rat at 2 mg/kg,iv measured at 0.083 to 24 hrs post administration by LC-MS/MS analysis; type: ADME, organism-based; conditions: in vivo, time 0.083-24 hrs
[19] = Cmax in Sprague-Dawley rat at 2 mg/kg,iv measured at 0.083 to 24 hrs post administration by LC-MS/MS analysis; type: ADME, organism-based; conditions: in vivo, time 0.083-24 hrs
[20] = AUCinfinity in Sprague-Dawley rat at 2 mg/kg,iv measured at 0.083 to 24 hrs post administration by LC-MS/MS analysis; type: ADME, organism-based; conditions: in vivo, time 0.083-24 hrs
[21] = Drug accumulation in Sprague-Dawley rat plasma assessed as fold change in drug uptake at 10 mg/kg,po measured at 0.083 to 24 hrs post administration by LC-MS/MS analysis; type: ADME, organism-based; conditions: in vivo, time 0.083-24 hrs
[22] = Drug accumulation in Sprague-Dawley rat liver assessed as fold change in drug uptake at 10 mg/kg,po measured at 0.083 to 24 hrs post administration by LC-MS/MS analysis; type: ADME, organism-based; conditions: in vivo, time 0.083-24 hrs
[23] = Clearance in CD-1 mouse liver microsomes at 0.3 uM pre-incubated for 10 mins followed by NADPH addition incubated for 60 mins by LC-MS/MS analysis; type: ADME, Microsome; conditions: time 70 min, read-out: CLH
[24] = Clearance in human liver microsomes at 0.3 uM pre-incubated for 10 mins followed by NADPH addition incubated for 60 mins by LC-MS/MS analysis; type: ADME, Microsome; conditions: time 70 min, read-out: CLH
[25] = Apparent volume of distribution at steady state in CD-1 mouse at 10 mg/kg,po measured at 0.083 to 24 hrs post administration by LC-MS/MS analysis; type: ADME, organism-based; conditions: in vivo, time 0.083-24 hrs
[26] = Tmax in CD-1 mouse at 10 mg/kg,po measured at 0.083 to 24 hrs post administration by LC-MS/MS analysis; type: ADME, organism-based; conditions: in vivo, time 0.083-24 hrs
[27] = Drug accumulation in CD-1 mouse liver at 10 mg/kg,po measured at 0.083 to 24 hrs post administration by LC-MS/MS analysis; type: ADME, organism-based; conditions: in vivo, time 0.083-24 hrs
[28] = Apparent volume of distribution at steady state in Sprague-Dawley rat at 10 mg/kg,po measured at 0.083 to 24 hrs post administration by LC-MS/MS analysis; type: ADME, organism-based; conditions: in vivo, time 0.083-24 hrs
[29] = Tmax in Sprague-Dawley rat at 10 mg/kg,po measured at 0.083 to 24 hrs post administration by LC-MS/MS analysis; type: ADME, organism-based; conditions: in vivo, po, 10 mg/kg, time 0.083-24 hrs
[30] = Drug accumulation in Sprague-Dawley rat liver at 10 mg/kg,po measured at 0.083 to 24 hrs post administration by LC-MS/MS analysis; type: ADME, organism-based; conditions: in vivo, time 0.083-24 hrs

Row | SMILES | EC50 (Hepatitis B virus) | clearance [1] | half-life [2] | Cmax [3] | AUC(0-inf) [4] | bioavailability [5] | microsomal CLint at 0.3 µM [23] | microsomal CLint at 0.3 µM [24] | AUC [9] | F [10] | CC50 (HepG2 2.2.15) | other results
1 | COCCCOc1cc2c(nc1OC)-c1cc(=O)c(C(=O)O)cn1[C@](C)(C(C)C)C2 | 8 nM | 55 mL/min/kg | 4.5 h | 639 ng/mL | 4160 ng·h/mL | 136% |  |  |  |  | > 50000 nM | clearance [6]: 22 mL/min/kg; half-life [7]: 4.4 h; Cmax ([8]; Sprague-Dawley, read-out: Cmax): 965 ng/mL; AUC(0-inf) ([9]; Sprague-Dawley): 6480 ng·h/mL; bioavailability ([10]; Sprague-Dawley): 82%; Vd [11]: 4 L/kg; half-life [12]: 1.5 h; Cmax [13]: 470 ng/mL; AUC(0-inf) [14]: 615 ng·h/mL; fold change (FC) [15]: 0.1; fold change (FC) [16]: 1; Vd [17]: 2.7 L/kg; half-life [18]: 4.4 h; Cmax [19]: 1590 ng/mL; AUC(0-inf) ([20]; Sprague-Dawley): 1570 ng·h/mL; fold change (FC) [21]: 2.7; fold change (FC) [22]: 15
2 | COCCCOc1cc2c(cc1C)-c1cc(=O)c(C(=O)O)cn1[C@H](C(C)C)CO2 | 39 nM |  |  |  |  |  | 4 µL/min/mg | 8 µL/min/mg |  |  | 39000 nM | 
3 | COCCCOc1cc2c(nc1OC)-c1cc(=O)c(C(=O)O)cn1[C@](C)(C(C)(C)C)C2 | 1 nM | 29 mL/min/kg | 3.7 h | 653 ng/mL | 4360 ng·h/mL | 92% |  |  | 1666 ng·h/mL | 56% | 41000 nM | clearance [6]: 40 mL/min/kg; half-life [7]: 5.2 h; Cmax ([8]; Sprague-Dawley, read-out: Cmax): 274 ng/mL; Vd [11]: 4 L/kg; half-life [12]: 1.7 h; Cmax [13]: 834 ng/mL; AUC(0-inf) [14]: 914 ng·h/mL; fold change (FC) [15]: 4; fold change (FC) [16]: 41; Vd [17]: 3.1 L/kg; half-life [18]: 2.9 h; Cmax [19]: 1680 ng/mL; AUC ([20]; iv, 2 mg/kg): 1199 ng·h/mL; fold change (FC) [21]: 7.4; fold change (FC) [22]: 35
4 | COc1cc2c(cc1Cl)-c1cc(=O)c(C(=O)O)cn1[C@H](C(C)C)CO2 | 38 nM |  |  |  |  |  | 1 µL/min/mg |  |  |  | > 50000 nM | 

Further compounds by falling EC50 (Hepatitis B virus), results first:

Row | EC50 (Hepatitis B virus) | clearance [1] | half-life [2] | Cmax [3] | AUC(0-inf) [4] | bioavailability [5] | microsomal CLint at 0.3 µM [23] | microsomal CLint at 0.3 µM [24] | AUC [9] | F [10] | SMILES | CC50 (HepG2 2.2.15) | other results
5 | 87 nM |  |  |  |  |  |  | 4 µL/min/mg |  |  | CC(C)[C@@H]1COc2cc(OCC(F)(F)F)c(Cl)cc2-c2cc(=O)c(C(=O)O)cn21 | 36000 nM | 
6 | 19 nM |  |  |  |  |  | 6 µL/min/mg | 4 µL/min/mg |  |  | CC(C)[C@@H]1COc2cc(OCCCO)c(Cl)cc2-c2cc(=O)c(C(=O)O)cn21 | > 50000 nM | 
7 | 6 nM | 21 mL/min/kg | 0.8 h | 844 ng/mL | 7080 ng·h/mL | 91% | 10 µL/min/mg |  | 2860 ng·h/mL | 24% | CCc1cc2c(cc1OCCCOC)OC[C@@H](C(C)C)n1cc(C(=O)O)c(=O)cc1-2 | 33000 nM | Vdss(app) [25]: 1.1 L/kg; Tmax [26]: 2.4 h; Ct [27]: 5 ng/g; t1/2 [7]: 2.7 h; Vdss(app) [28]: 0.9 L/kg; Cmax ([8]; po, 10 mg/kg): 351 ng/mL; Tmax [29]: 3.3 h; Ct [30]: 47 ng/g
8 | 6 nM | 14 mL/min/kg | 0.9 h | 914 ng/mL | 8410 ng·h/mL | 69% | 1 µL/min/mg |  | 3950 ng·h/mL | 13% | COCCCOc1cc2c(cc1C1CC1)-c1cc(=O)c(C(=O)O)cn1[C@H](C(C)C)CO2 | 42000 nM | Vdss(app) [25]: 0.8 L/kg; Tmax [26]: 4.8 h; Ct [27]: 575 ng/g; t1/2 [7]: 1 h; Vdss(app) [28]: 0.3 L/kg; Cmax ([8]; po, 10 mg/kg): 488 ng/mL; Tmax [29]: 3.1 h; Ct [30]: 20 ng/g
